Results: patent publication US20170369892A1, “HORMONE DEGRADABLE CRISPR-BASED TRANSCRIPTION FACTORS” (University of Washington, priority 2016, published 2017)
Entries after “also recorded” stand apart in the source; their conditions may differ.

Legend:
[1] = system: UBQ1 promoter driving venus-luciferase reporter repressed by ADCTF; assay: ADCTF-regulated venus-luciferase reporter in plants after auxin treatment; assay type: in vivo, Arabidopsis thaliana
Description: FIG. 12A is a schematic of the genetic circuit that was transformed into Arabidopsis thaliana to test the function of the hormone degradable CRISPR based transcription factor (HDCTF). […] These complex together and cause repression of the UBQ1 promoter, which is driving the expression of a venus-luciferase fusion reporter with a nuclear localization tag fused to it. Auxin can interact with the degron domain of the ADCTF (a version of the HDCTF) to degrade the transcription factor and relieve repression.
FIG. 12B is graph showing the normalized luciferase reporter activity over time for two plants, one of which has an ADCTF with a functional degron and the other which has a ADCTF with a stabilized degron. The orange bar indicates when the plants were exposed to either an auxin (solid line) or control (dashed line) treatment. The box plot summarizes the behavior of several plant lines with the functional or stabilized degron ADCTFs eighty minutes after treatment.

[2] = system: ADCTF (auxin receiver) strain, minimal CYC1 promoter driving EGFP; assay: Cytometry of ADCTF receiver yeast strains (GFP reporter) after auxin induction; assay type: cell-based, Saccharomyces cerevisiae
Description: Synthetic, scalable, auxin-modulated transcription factors are provided. To link an auxin sensor to diverse transcriptional responses and targets, auxin degradable CRISPR transcription factors (ADCTFs) with three modular domains were designed (see FIG. 1A). In some embodiments, a core component of the ADCTFs can be the CRISPR-based transcription factor described by Farzadfard, et al. (“Tunable and multifunctional eukaryotic transcription factors based on CRISPR/Cas,” ACS synthetic biology 2.10 (2013): 604-613), wherein a dCas9 protein functions as a programmable DNA binding module. The dCas9 was fused to a transcriptional effector domain, in this case the transcriptional activator VP64, and to an IAA degron. In the presence of an AFB, ADCTFs should generally be ubiquitinated and degraded when exposed to auxin. The ADCTFs were tested by targeting them to activate the expression of EGFP from a minimal CYC1 promoter and observing deactivation of fluorescence upon the addition of auxin. […] Auxin dependent regulation was independent of the promoter being regulated by the ADCTF (see FIG. 6B). The observed effect was also reversible.
(§1) All cytometry measurements were acquired with an ACCURI™ C6 cytometer with attached CSAMPLER™ apparatus using 488 nm and 640 nm excitation lasers and a 533 nm (FL-1: YFP/GFP) emission filter. For experiments involving steady-state ADC behavior (see FIGS. 6A-7B) cultures were grown overnight in SC media with 1 nM beta-estradiol for ADC expression induction. The next morning they were diluted down 1:100 and then grown up for 5 hours and then induced with varying auxin concentrations from stock solutions. These cultures were then grown overnight and fluorescence was measured the next day. For the replicates, untreated cultures from the previous day's experiments were used as overnights to begin the next day's cultures.
For time course experiments, cultures were grown overnight in SC media with 1 nM beta-estradiol for ADC expression induction. The next morning two sets of parallel cultures were set up by diluting down the overnights 1:100. These were then grown up for 5 hours and then induced with 30 μM auxin and reads were taken every 30 minutes for approximately seven hours. A final steady state reading was taken the next day.
Cytometry data were analyzed using custom R scripts and the FLOWCORE™ package by first gating for the yeast diploid population and then generating mean fluorescence values for every point. These datasets were then collectively fit using the LOESS fitting function in R and metrics and error were derived from these fits. For the recovery experiments, the same protocol was used except the overnight cultures were grown up in SC with 1 nM beta-estradiol and 30 μM auxin.

[3] = system: laboratory strains of yeast; conditions: grown in standard conditions; cited from earlier work
[4] = system: receiver cells (ADCTF, gRNA targeting minimal CYC1 promoter driving EGFP); assay: Coculture of sender and receiver strains treated with IAM; assay type: cell-based, Saccharomyces cerevisiae; conditions: saturating IAM
Description: FIG. 5A illustrates coculture of sender and receiver strains. Sender cells convert IAM into auxin that then diffuses out of sender cells and into receiver cells where it causes the degradation of ADCTFs, producing a drop in fluorescence.
Sender cells can produce a tunable auxin response in receiver cells. Sender and receiver cells were cocultured in different ratios to measure the effect of sender cell concentration on auxin signal production. Senders constitutively express iaaH and the receivers expressed an activating ADCTF and a gRNA targeting a minimal CYC1 promoter driving EGFP (see FIG. 5A). […] Three different receiver strains with a range of responses to auxin were tested with the sender strain. […] In addition, a 10% fraction of sender cells is sufficient for a significant change in fluorescence in receiver cells at steady state and a 50% fraction produces a nearly saturating signal (see FIGS. 5C and 5D).

[5] = system: EYFP-IAA17|AFB2 auxin reporting strain expressing iaaH; assay: Time-lapse cytometry of iaaH sender strain with EYFP-IAA17|AFB2 auxin reporter after IAM or auxin; assay type: cell-based, Saccharomyces cerevisiae
Description: FIG. 3A illustrates an auxin sender strain design. The iaaH enzyme of Agrobacterium tumefaciens catalyzes the conversion of indole-3-acetamide (IAM) into auxin, inducing the degradation of proteins fused to an auxin degron. The iaaH enzyme (sender cells) was integrated into an auxin reporting strain (the EYFP-IAA17|AFB2 strain from Havens, et al. (2012) Plant Physiol. 160, 135-42) to test for internal auxin production.
Yeast can produce tunable levels of auxin via expression of Iaah from Agrobacterium tumefaciens. To generate an auxin producing strain, half of the IAM pathway from Agrobacterium tumefaciens was integrated into yeast (see Zhao, Y. (2010) Annu. Rev. Plant Biol. 61, 49-64). The IAM pathway is a two-step enzymatic process that converts tryptophan to IAM and then into auxin. The first step is via tryptophan-2-monooxygenase (iaaM, not examined here). The second step is catalyzed by indole-3-acetamide hydrolase (iaaH). To test whether yeast could produce auxin from IAM using only the second enzyme, the iaaH gene from the Agrobacterium tumefaciens Ti plasmid (see Pacurar, D. I., et al. (2011) Physiol. Mol. Plant Pathol. 76, 76-81) was integrated into an auxin reporting yeast strain (see FIG. 3A) containing a IAA-YFP fusion protein. After adding IAM, reporter degradation rates were measured via time-lapse cytometry (see FIG. 3B).
as §1

auxin
normalized luciferase reporter activity ([1]; ADCTF with functional degron, eighty minutes after treatment): significant increase in reporter expression | reporter expression in root tip (confocal microscopy) ([1]; root tip): significant increase in reporter expression | release of regulation with minimal pGAL promoter driving GFP ([2]; 30 μM auxin, degron 17 with AFB2 or TIR1-DM, compared with pCYC1 target): comparable release of regulation | GFP fluorescence level following addition of auxin ([2]; time-lapse cytometry, ADCTF strain expressing gRNA): dropped to basal levels; also recorded: dropped to levels at or below the control (no gRNA) levels | reporter expression after auxin was removed ([2]; wash-out after steady state): returned to its activated state | effects on laboratory strains of yeast [3]: does not have measurable effects

NC(=O)Cc1c[nH]c2ccccc12 [IAM, indole-3-acetamide]
fluorescence / gene activation in receiver strain [4]: dropped in fluorescence over time; also recorded: comparable to direct addition of auxin | delay between addition of IAM and production of auxin [5]: no significant delay | auxin-induced degradation rate (t1/2) of reporter ([5]; for a given molarity, compared with auxin): comparable to that of native auxin | fluorescence of sender cells following addition of IAM ([5]; time-lapse cytometry): decreased to basal levels | steady state fluorescence of sender cells ([5]; varying doses of IAM): lower steady state fluorescence; also recorded: converge to those of auxin

B1: tir1-D/M: mutant of TIR1 F-box protein (protein, UniProt Q570C0 1-594, looked up, variant D170E M473L)
Protein TRANSPORT INHIBITOR …: MQKRIALSFPEEVLEHVFSFIQLDKDRNSVSLVCKSWYEIERWCRRKVFIGNCYAVSPATVIRRFPKVRSVELKGKPHFADFNLVPDGWGGYVYPWIEAMSSSYTWLEEIRLKRMVVTDDCLELIAKSFKNFKVLVLSSCEGFSTDGLAAIAATCRNLKELDLRESDVDEVSGHWLSHFPDTYTSLVSLNISCLASEVSFSALERLVTRCPNLKSLKLNRAVPLEKLATLLQRAPQLEELGTGGYTAEVRPDVYSGLSVALSGCKELRCLSGFWDAVPAYLPAVYSVCSRLTTLNLSYATVQSYDLVKLLCQCPKLQRLWVLDYIEDAGLEVLASTCKDLRELRVFPSEPFVMEPNVALTEQGLVSVSMGCPKLESVLYFCRQMTNAALITIARNRPNMTRFRLCIIEPKAPDYLTLEPLDIGFGAIVEHCKDLRRLSLSGLLTDKVFEYIGTYAKKMEMLSVAFAGDSDLGLHHVLSGCDSLRKLEIRDCPFGDKALLANASKLETMRSLWMSSCSVSFGACKLLGQKMPKLNVEVIDERGAPDSRPESCPVERVFIYRTVAGPRFDMPGFVWNMDQDSTMRFSRQIITTNGL
degradation kinetics (time to 50% degradation) ([2]; 30 μM auxin induction, ranking across library): fastest overall | auxin sensitivity range conferred by F-box protein ([2]; steady state, dose response twenty-four hours after induction): narrowest
